The values that follow come from PMC10327353 (Breast Cancer Research : BCR, 2023).

Where two headings read alike, the source gives them in different places.

Data set [1] relates to HER2+ metastatic breast cancer. Kind of data set: Phase 1 study: antitumor activity (modified RECIST v1.1). The data set is classed as in vivo, human. As for the experimental part: Tumor imaging assessments were conducted every 6 weeks during the first 24 weeks (relative to C1D1) and every 9 weeks thereafter per investigator review according to modified RECIST v1.1 until progressive disease, starting a new anticancer therapy or withdrawal of informed consent (Additional file 1).
Tumor imaging assessments were conducted every six weeks during the first 24 weeks (relative to C1D1) and every nine weeks thereafter per investigator review according to modified RECIST v1.1 until progressive disease, starting a new anti-cancer therapy or withdrawal of informed consent. Patients who achieved an objective response had confirmatory scans at least four weeks apart.
The modified RECIST 1.1 used in this study includes both CNS assessment and extracranial assessment. A maximum of five measurable extracranial lesions, with a maximum of two lesions per organ, were selected in patients with extracranial disease. In addition, a maximum of five measurable intracranial lesions were selected in patients with intracranial disease. […] An overall response will be derived based on extracranial and intracranial response as described in the below table.

Data set [2] can be described thus: Phase 1 study: plasma pharmacokinetics. Type of data set: in vivo, human. To be noted: for AUC(0-t): 250 mg. How it is done: Blood samples for PK analyses of DZD1516 and DZ2678 were collected on C0D1. Samples were obtained at pre-dose and at 0.5, 1, 1.5, 2, 2.5, 3, 4, 6, 8, 10, 24, 48, and 72 h after the dose, while for C1D15, samples were obtained at pre-dose and 0.5, 1, 1.5, 2, 2.5, 3, 4, 6, 8, and 10 h after the dose. CSF samples for PK analyses of DZD1516 and its metabolite DZ2678 were collected from patients with BM (C1D15) and LM (C1D15 and C3D1) at steady state (Additional file 1). Plasma and CSF samples were analyzed by LabCorp Madison laboratory (Madison, WI, USA) and LabCorp Shanghai laboratory (Shanghai, China) using a validated LC/MS/MS bioanalytical method to determine DZD1516 and DZ2678 concentrations. Non-compartmental PK analysis was performed using Phoenix WinNonlin (Certara USA Inc., version 8.3.3.33).
Blood samples for PK analyses of DZD1516 and DZ2678 were collected on C0D1 and C1D15.
Plasma concentrations of analytes evaluated in this study were determined using validated bioanalytical methods at Labcorp Madison lab (Madison, WI, USA) and Labcorp Shanghai lab (Shanghai, China). Concentrations of analytes in human plasma containing K2EDTA as an anticoagulant was determined using plasma precipitation, followed by analysis using high-performance LC-MS/MS detection. Two bioanalytical methods used […] of plasma and were linear over the range of 5.00 (the lower limit of quantification) to 5000 ng/mL for DZD1516 and 2.00 (the lower limit of quantification) to 2000 ng/mL for DZ2678 (Labcorp Shanghai lab), 1.96 (the lower limit of quantification) to 1960 ng/mL for DZ2678 (Labcorp Madison lab). The analysis runs for all analytes were determined to have a high degree of reproducibility and acceptably low inter-run carryover, which was considered acceptable for PK quantification. The plasma samples were stored at –70°C until analysis. PK analyses were performed by using Phoenix WinNonLin (Certara USA, Inc., Version 8.1 or higher).

Data set [3] addresses T1, P-gp (MDR1) (Homo sapiens, UniProt P08183).
T1 construct: expressed in transfected cells; host or cells: MDCKII-MDR1
The data set can be described thus: P-gp efflux ratio, bi-directional transport assay. The data set is classed as in vitro ADME. An excerpt:
Passive permeability (Papp) characterizes the rate across the cell membrane due to passive diffusion. A high permeability enables the rapid establishment of equilibrium among plasma, CSF, and brain compartments. Except for passive permeability, sufficient unbound drug concentration in the brain is governed by efflux transporters, including P-gp (MDR1, ABCB1) and BCRP, at BBB. Efflux ratio (ER) reflects the liability of a compound to be pumped out of the brain by BBB efflux transporters, which is indicated by the distribution disequilibrium between the plasma and the brain compartments.
[…] The adjusted efflux ratio was used to determine if DZD1516/DZ2678 underwent active efflux. Verapamil, a P-glycoprotein (P-gp) inhibitor, was used to identify if any active transport processes were mediated through P-gp. The apical-to-basolateral (A-B) and basolateral-to-apical (B-A) transport of DZD1516/DZ2678 in HBSS (25 mM HEPES, pH 7.4) with 0.1% BSA was measured across MDCKII-MDR1 cell monolayers in the absence and presence of the P-gp inhibitor, verapamil (100 μM). The apical-to-basolateral (A-B) and basolateral-to-apical (B-A) transport of DZD1516/DZ2678 in HBSS (25 mM HEPES, pH 7.4) with 0.1% BSA was also measured across MDCKII cell monolayers in the absence and presence of the P-gp inhibitor, verapamil. Incubations were performed at approximately 37°C for 120 min, with the functionality of the test system being confirmed using 5 μM digoxin as a positive control substrate. […] determined by quantifying substrate concentration in the incubation medium of the donor compartment at the beginning of the incubation period and both donor and receiver compartments at the end of the incubation period. The data was used to calculate the apparent permeability (Papp). All incubations were performed in triplicate, and the integrity of the cell monolayers was confirmed using the marker Lucifer yellow.

T1 sequence (P08183 whole entry): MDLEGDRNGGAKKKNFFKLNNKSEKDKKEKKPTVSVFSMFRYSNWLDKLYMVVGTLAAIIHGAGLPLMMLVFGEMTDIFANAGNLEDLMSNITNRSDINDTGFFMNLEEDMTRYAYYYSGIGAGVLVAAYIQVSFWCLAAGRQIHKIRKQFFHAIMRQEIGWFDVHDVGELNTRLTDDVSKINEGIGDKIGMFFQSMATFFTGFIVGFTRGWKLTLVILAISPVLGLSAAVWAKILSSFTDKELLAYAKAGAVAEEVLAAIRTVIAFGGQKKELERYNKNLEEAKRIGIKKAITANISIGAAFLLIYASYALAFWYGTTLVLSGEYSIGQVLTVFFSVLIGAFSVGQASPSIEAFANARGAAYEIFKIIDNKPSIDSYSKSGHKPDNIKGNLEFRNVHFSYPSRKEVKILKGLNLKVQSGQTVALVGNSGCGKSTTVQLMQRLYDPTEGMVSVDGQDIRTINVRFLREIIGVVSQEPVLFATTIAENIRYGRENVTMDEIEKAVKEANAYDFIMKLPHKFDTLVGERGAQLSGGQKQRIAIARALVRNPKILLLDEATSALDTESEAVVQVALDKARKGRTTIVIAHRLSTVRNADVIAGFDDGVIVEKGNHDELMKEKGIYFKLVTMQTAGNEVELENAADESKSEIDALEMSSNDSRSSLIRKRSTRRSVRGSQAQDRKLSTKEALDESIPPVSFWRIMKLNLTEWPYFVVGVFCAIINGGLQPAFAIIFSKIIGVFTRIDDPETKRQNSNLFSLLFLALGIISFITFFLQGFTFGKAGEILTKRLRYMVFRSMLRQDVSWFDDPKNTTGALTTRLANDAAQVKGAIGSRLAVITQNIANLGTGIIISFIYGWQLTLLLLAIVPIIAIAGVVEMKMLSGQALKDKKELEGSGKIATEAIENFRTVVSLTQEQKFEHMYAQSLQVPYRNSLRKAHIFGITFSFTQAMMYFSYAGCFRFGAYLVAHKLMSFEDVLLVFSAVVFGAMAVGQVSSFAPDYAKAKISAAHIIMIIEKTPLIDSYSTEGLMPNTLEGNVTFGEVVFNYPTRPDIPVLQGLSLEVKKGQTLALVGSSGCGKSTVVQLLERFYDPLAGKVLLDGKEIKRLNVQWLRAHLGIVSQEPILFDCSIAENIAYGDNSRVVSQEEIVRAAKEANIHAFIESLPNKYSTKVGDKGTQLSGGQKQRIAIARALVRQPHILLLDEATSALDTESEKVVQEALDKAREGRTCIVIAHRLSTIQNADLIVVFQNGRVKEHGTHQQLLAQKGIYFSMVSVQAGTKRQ

By Cmax is commonly meant the maximum level reached in the sampled fluid or tissue. As usually defined, the Tmax is the time from dosing to the highest level. One may read the efflux ratio as the permeability from basolateral to apical divided by that in the opposite direction, in the common usage. `COc1cc(O[C@H]2CCN(C)CC2(F)F)c2c(Nc3ccc(Oc4ccn5ncnc5c4)c(C)c3)ncnc2c1` [DZD1516] registered a disease control rate in data set [1] (MTD (250 mg), 3/5) of 60%. The “patients who achieved stable disease” value in data set [1] (all dose levels) is on record as 6 out of 23. Besides, in data set [1] (patients, median seven lines of prior systemic therapy), the “best antitumor efficacy in intracranial, extracranial and overall lesions” value is listed as “stable disease”. Besides, the “Css,max, Geometric Mean [CV%]” value in data set [2] (Day 15, 250 mg BID DZD1516) is 1410[44.64] ng/mL. In addition, the “Css,min, Geometric Mean [CV%]” value in data set [2] (Day 15, 250 mg BID DZD1516) was 442.8[50.12] ng/mL. The “tss,max, Median (Min, Max)” value in data set [2] (Day 15, 250 mg BID DZD1516) was 1.483(0.533,2.47) hr. The AUC(0-t) was 6160 ng·h/mL in data set [2] (human, plasma, oral, Day 1, 250 mg DZD1516, read-out: AUC0-10, Geometric Mean [CV%]); 13200 ng·h/mL in data set [2] (human, plasma, oral, Day 1, 250 mg DZD1516, read-out: AUC0-72, Geometric Mean [CV%]); 7560 ng·h/mL in data set [2] (human, plasma, oral, Day 15, 250 mg BID DZD1516, read-out: AUC0-10, Geometric Mean [CV%]). For the same molecule, in data set [2] (human, plasma, oral, Day 1, 250 mg DZD1516, read-out: Cmax, Geometric Mean [CV%]), the highest concentration (Cmax) is 1330 ng/mL. Also, the half-life in data set [2] (human, plasma, oral, Day 1, 250 mg DZD1516, read-out: t1/2, Mean (SD) (converted)) was 19.8 h; in data set [2] (human, plasma, oral, patients, read-out: half-life) it was 13.3 to 20.1 h. The Tmax in data set [2] (human, plasma, oral, Day 1, 250 mg DZD1516, read-out: tmax, Median (Min, Max)) is 2.85 h; in data set [2] (human, plasma, patients, single oral administration 50 to 300 mg, read-out: median tmax) it was 2.15 to 3.22 h. The AUC in data set [2] (human, plasma, oral, Day 15, 250 mg BID DZD1516, read-out: AUCtau, Geometric Mean [CV%]) was determined as 8340 ng·h/mL. The accumulation entry in data set [2] (steady state, 15 days of twice daily dosing) is on record as “approximately twofold”. In data set [3] (human, MDCK-MDR1, pH 7.4), the efflux ratio at 120 min, 1 µM was below 2. Besides, the “Efflux ratio P-gp @1 µM” value in data set [3] (listed as Cpd-5) came out at 1.6.
